{"source": "patent US20240210412A1", "about": "“SULFONYL-TRIAZOLE COMPOUNDS USEFUL AS LIGANDS AND INHIBITORS OF PROSTAGLANDIN REDUCTASE 2” (University of Virginia Patent Foundation, priority 2021, published 2024)", "assay_in_all_cases": "SILAC LC-MS ABPP", "conditions_in_all_cases": "25 μM 2 h, live DM93 cells", "key": {"O95373": {"target": "T1, O95373 (Homo sapiens, UniProt O95373)", "T1 construct": "endogenous in cells; host or cells: DM93 cells (SILAC)", "T1 sequence (O95373 whole entry)": "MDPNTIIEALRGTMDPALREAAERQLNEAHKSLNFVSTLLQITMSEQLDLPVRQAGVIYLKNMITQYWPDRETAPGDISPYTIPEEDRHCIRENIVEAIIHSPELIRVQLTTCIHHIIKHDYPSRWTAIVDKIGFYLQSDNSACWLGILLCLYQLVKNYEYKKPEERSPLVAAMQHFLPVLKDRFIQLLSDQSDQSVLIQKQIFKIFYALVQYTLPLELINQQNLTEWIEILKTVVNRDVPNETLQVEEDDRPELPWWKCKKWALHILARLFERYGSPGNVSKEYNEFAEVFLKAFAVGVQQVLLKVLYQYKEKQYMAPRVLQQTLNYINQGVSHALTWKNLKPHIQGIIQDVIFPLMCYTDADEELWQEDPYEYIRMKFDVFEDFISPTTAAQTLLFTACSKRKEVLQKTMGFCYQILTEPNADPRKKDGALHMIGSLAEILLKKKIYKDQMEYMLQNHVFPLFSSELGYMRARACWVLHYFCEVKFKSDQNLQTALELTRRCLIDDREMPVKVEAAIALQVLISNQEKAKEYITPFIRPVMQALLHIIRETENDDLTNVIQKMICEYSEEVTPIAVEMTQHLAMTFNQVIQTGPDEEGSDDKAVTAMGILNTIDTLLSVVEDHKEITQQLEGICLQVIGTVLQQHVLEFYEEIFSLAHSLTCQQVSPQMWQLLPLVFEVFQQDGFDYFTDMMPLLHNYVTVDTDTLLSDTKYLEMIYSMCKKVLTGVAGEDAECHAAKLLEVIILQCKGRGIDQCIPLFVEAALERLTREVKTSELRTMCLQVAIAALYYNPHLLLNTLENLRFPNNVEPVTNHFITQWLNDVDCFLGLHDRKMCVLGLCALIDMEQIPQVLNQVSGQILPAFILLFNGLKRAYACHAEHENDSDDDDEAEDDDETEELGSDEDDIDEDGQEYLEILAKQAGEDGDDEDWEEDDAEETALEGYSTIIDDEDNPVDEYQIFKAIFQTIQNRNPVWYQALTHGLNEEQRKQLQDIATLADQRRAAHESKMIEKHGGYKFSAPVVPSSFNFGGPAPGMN", "assay_type": "cell-based", "method_in_brief": "(§1)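 Readout is SILAC heavy/light LC-MS/MS quantification of HHS-475-labelled tyrosine peptides, reflecting blockade of probe labelling by ligand. DM93 cells were pretreated with 25 μM SuTEx ligand (heavy) or DMSO (light) for 2 h at 37 °C, then probed with 100 μM HHS-475 for 2 h.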"}, "Q04323": {"target": "T2, Q04323 (Homo sapiens, UniProt Q04323)", "T2 construct": "performing SuTEx compound screening directly in cells; endogenous in cells; host or cells: DM93 cells (SILAC)", "assay_type": "cell-based", "method_in_brief": "as §1"}, "Q04837": {"target": "T3, Q04837 (Homo sapiens, UniProt Q04837)", "T3 construct": "performing SuTEx compound screening directly in cells; endogenous in cells; host or cells: DM93 cells (SILAC)", "T3 sequence (Q04837 17-148)": "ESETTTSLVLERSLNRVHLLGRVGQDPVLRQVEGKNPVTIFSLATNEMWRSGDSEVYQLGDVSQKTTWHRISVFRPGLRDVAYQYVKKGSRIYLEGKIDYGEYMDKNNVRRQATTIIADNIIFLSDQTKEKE", "assay_type": "cell-based", "method_in_brief": "as §1"}, "A6NKT7": {"test_system": "A6NKT7", "assay_type": "cell-based, human", "procedure": "Cells were grown to 90-95% confluence before being washed once with warm, sterile DPBS (1×, 5 mL), followed by addition of 10 mL of serum-free media (supplemented with 1% L-glutamine) containing either DMSO or SuTEx fragment (in DMSO) was added. Light cells were treated with DMSO vehicle while the heavy cells were treated with DMSO or SuTEx fragment (in DMSO) and incubated for 2 hrs. After 2 hrs, the cells were treated with SuTEx alkyne probe (HHS475, 10 μL of 1000× DMSO stock) and incubated for an additional 2 hrs. The media was aspirated and cells washed with cold PBS (5 mL) and harvested. Cells were spun at 500×g for 5 min at 4° C. followed by removal of supernatant. Pellets were resuspended in 1 mL of cold DPBS and spun at 1,400×g for 3 min at 4° C. followed by removal of supernatant. The cells were lysed in PBS by sonication and fractionated (100,000×g, 45 min, 4° C.).The light and heavy soluble fractions were diluted to 2.3 mg/mL in PBS and 432 μL were used for analysis (1 mg total protein). The probe-modified proteomes were conjugated to desthiobiotin-PEG3-azide (10 μl of 10 mM stock in DMSO; 200 μM final concentration) using TCEP (10 μl of fresh 50 mM stock in water, 1 mM final concentration), TBTA ligand (33 μl of a 1.7 mM 4:1 t-butanol/DMSO stock, 100 μM final concentration) and CuSO4 (10 μl of 50 mM stock, 1 mM final concentration). Samples were vortexed to mix and incubated for 1 hr at room temperature. The heavy and light proteomes were mixed 1:1 and the subsequent steps, including LC-MS/MS data analysis, were performed as previously described^[8a].\nCoupling cell-based screens with chemical proteomics can facilitate the identification of target protein and binding sites that engage and are irreversibly modified by covalent ligands^[12]. In these assays, covalent ligands block SuTEx activity-based probe (ABP) labeling at protein sites, and the competition of probe labeling can be used to quantify potency and selectivity across the proteome^[10a]. To facilitate quantitative chemical proteomics, DM93 melanoma cells were cultured using stable isotopic labeling by amino acids in cell culture (SILAC)^[13]. Cells cultured in “light” media were treated with dimethyl sulfoxide (DMSO) vehicle while cells cultured in “heavy” media were treated with SuTEx ligand (25 μM, 2 hours, 37° C.). Next, cells were treated with HHS-475 probe (100 μM, 2 hours, 37° C.) followed by lysis and processing of proteomes for analysis. Probe-modified proteins from the soluble fraction were conjugated to a desthiobiotin-azide tag by copper-catalyzed azide-alkyne cycloaddition (CuAAC)^[14] followed by mixing of the light and heavy proteomes. The combined proteomes were digested with trypsin protease to produce probe-modified peptides, followed by enrichment and purification by avidin affinity chromatography. Probe-modified peptides were resolved, identified, and quantified by high-resolution liquid chromatography-tandem mass spectrometry (LC-MS/MS). Resultant data were analyzed as previously described^[8a, 10a]. Table 2, below, lists sites of modification targeted by sulfonyl-triazole compounds HHS-0101, HHS-0201, HHS-0301, HHS-0401, and HHS-0701. The format of the table is as follows: protein Uniprot accession number (see uniprot.org); tyrosine site (amino acid position) modified; treatment (sulfonyl-triazole compound identification number, followed by Y (where if multiple compounds modify the same site, the compounds are separated by vertical lines)."}, "Q9BUT1": {"target": "T4, Q9BUT1 (Homo sapiens, UniProt Q9BUT1)", "T4 construct": "endogenous in cells; host or cells: DM93 cells (SILAC), treated live; soluble proteome analysed", "assay_type": "cell-based", "method_in_brief": "as §1"}, "Q9Y2S7": {"target": "T5, Q9Y2S7 (Homo sapiens, UniProt Q9Y2S7)", "T5 construct": "endogenous in cells; host or cells: DM93 cells (SILAC)", "assay_type": "cell-based", "method_in_brief": "as §1"}, "P06400": {"target": "T6, P06400 (Homo sapiens, UniProt P06400)", "T6 construct": "endogenous in cells; host or cells: DM93 cells (SILAC)", "T6 sequence (P06400 whole entry)": "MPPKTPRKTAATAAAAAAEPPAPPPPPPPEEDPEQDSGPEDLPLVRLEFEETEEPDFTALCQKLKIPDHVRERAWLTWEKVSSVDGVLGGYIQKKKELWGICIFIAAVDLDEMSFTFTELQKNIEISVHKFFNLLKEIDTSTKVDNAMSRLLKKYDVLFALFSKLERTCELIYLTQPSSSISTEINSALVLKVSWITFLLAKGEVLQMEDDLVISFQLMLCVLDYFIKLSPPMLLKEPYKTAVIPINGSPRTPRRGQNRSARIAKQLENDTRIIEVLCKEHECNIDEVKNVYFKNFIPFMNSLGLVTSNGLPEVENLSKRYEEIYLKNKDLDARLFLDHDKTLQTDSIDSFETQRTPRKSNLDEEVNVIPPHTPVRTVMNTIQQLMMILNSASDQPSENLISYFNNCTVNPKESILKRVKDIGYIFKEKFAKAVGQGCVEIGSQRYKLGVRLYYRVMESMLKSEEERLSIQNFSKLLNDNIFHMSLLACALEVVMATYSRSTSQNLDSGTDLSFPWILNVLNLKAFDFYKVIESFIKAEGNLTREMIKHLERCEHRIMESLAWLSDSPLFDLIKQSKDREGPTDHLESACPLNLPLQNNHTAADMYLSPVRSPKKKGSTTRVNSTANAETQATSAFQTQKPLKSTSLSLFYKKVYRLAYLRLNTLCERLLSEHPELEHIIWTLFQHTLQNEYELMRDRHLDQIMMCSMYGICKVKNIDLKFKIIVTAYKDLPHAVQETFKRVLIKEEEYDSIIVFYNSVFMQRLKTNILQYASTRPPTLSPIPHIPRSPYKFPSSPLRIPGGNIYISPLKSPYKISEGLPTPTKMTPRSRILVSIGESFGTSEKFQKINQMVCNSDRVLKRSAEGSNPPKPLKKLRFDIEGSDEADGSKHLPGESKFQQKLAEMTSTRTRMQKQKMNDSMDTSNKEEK", "assay_type": "cell-based", "method_in_brief": "as §1"}, "P31948": {"target": "T7, P31948 (Homo sapiens, UniProt P31948)", "T7 construct": "endogenous in cells; host or cells: DM93 (SILAC)", "assay_type": "cell-based", "method_in_brief": "as §1"}, "Q12965": {"target": "T8, Q12965 (Homo sapiens, UniProt Q12965)", "T8 construct": "performing SuTEx compound screening directly in cells; endogenous in cells; host or cells: DM93 cells (SILAC)", "T8 sequence (Q12965 whole entry)": "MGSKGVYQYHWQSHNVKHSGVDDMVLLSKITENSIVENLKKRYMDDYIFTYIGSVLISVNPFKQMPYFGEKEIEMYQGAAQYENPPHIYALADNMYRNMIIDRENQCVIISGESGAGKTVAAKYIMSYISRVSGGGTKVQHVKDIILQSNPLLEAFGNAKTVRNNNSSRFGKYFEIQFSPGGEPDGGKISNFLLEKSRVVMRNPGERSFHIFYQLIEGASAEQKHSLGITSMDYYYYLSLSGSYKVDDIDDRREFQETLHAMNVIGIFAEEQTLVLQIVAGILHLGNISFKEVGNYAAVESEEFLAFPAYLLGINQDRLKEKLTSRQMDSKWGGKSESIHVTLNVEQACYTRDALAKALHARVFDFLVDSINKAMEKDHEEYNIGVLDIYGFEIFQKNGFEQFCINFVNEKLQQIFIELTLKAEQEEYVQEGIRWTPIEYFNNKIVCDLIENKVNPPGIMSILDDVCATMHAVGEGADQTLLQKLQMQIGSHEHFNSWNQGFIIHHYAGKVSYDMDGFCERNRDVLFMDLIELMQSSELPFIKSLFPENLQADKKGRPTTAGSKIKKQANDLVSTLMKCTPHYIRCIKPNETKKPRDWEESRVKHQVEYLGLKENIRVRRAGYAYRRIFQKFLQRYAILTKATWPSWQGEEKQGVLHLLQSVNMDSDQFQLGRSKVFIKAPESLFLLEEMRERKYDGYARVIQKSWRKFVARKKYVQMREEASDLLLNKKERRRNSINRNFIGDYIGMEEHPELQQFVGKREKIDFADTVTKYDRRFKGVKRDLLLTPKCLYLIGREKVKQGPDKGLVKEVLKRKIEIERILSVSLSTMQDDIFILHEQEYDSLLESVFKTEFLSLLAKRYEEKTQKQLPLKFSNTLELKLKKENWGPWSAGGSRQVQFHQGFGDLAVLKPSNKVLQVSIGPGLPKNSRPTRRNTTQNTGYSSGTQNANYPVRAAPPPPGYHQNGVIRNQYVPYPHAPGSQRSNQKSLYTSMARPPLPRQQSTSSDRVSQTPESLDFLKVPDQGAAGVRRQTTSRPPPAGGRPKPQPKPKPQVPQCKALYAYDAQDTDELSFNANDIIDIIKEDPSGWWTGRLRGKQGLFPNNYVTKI", "assay_type": "cell-based", "method_in_brief": "as §1"}, "P18669": {"target": "T9, P18669 (Homo sapiens, UniProt P18669)", "T9 construct": "endogenous in cells; host or cells: DM93 (SILAC)", "T9 sequence (P18669 whole entry)": "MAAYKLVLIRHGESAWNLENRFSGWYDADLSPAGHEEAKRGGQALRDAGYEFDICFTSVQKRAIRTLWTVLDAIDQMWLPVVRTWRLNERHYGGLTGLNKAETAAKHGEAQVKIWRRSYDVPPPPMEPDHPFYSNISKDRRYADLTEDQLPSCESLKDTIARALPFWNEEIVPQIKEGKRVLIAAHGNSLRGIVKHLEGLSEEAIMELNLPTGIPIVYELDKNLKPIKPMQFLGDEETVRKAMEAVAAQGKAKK", "assay_type": "cell-based", "method_in_brief": "as §1"}, "P13010": {"target": "T10, P13010 (Homo sapiens, UniProt P13010)", "T10 construct": "endogenous in cells; host or cells: DM93 cells (SILAC)", "assay_type": "cell-based", "method_in_brief": "as §1"}, "Q99797": {"target": "T11, Q99797 (Homo sapiens, UniProt Q99797)", "T11 construct": "endogenous in cells; host or cells: DM93 cells (SILAC), treated live; soluble proteome analysed", "T11 sequence (Q99797 36-713)": "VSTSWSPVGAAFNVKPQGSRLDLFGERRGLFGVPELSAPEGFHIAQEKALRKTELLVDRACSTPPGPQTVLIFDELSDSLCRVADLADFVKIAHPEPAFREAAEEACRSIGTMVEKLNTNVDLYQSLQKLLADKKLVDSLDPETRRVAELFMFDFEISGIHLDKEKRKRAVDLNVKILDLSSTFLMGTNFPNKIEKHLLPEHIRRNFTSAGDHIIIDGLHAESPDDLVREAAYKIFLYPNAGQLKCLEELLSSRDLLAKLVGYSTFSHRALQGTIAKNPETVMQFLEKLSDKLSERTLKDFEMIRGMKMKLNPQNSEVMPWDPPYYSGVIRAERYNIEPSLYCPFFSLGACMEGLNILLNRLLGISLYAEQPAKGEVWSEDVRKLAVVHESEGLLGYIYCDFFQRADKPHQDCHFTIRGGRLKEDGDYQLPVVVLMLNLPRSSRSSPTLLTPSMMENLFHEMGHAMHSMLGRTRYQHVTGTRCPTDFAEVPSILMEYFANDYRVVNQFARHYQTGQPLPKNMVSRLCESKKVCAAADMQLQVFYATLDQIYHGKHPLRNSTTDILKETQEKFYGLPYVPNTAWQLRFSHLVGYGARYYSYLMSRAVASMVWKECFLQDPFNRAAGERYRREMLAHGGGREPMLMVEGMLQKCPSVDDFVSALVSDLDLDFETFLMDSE", "assay_type": "cell-based", "method_in_brief": "as §1"}, "Q9HCE5": {"target": "T12, Q9HCE5 (Homo sapiens, UniProt Q9HCE5)", "T12 construct": "endogenous in cells; host or cells: DM93 cells (SILAC), treated live; soluble proteome analysed", "assay_type": "cell-based", "method_in_brief": "as §1"}, "Q9UI12": {"target": "T13, Q9UI12 (Homo sapiens, UniProt Q9UI12)", "T13 construct": "endogenous in cells; host or cells: DM93 cells (SILAC)", "T13 sequence (Q9UI12 whole entry)": "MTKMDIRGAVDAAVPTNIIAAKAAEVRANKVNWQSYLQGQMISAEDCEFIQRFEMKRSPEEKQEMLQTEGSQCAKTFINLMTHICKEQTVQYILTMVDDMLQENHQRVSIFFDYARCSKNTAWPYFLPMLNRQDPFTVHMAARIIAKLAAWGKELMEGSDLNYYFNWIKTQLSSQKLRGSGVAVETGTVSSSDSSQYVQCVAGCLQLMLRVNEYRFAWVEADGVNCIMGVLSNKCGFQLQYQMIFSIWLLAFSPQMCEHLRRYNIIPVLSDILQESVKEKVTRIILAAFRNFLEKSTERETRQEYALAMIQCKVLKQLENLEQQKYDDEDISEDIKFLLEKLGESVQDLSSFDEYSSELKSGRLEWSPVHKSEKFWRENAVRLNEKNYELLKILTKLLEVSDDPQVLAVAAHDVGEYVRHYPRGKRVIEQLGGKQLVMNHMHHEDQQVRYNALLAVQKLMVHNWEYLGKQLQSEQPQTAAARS", "assay_type": "cell-based", "method_in_brief": "as §1"}, "Q14566": {"target": "T14, Q14566 (Homo sapiens, UniProt Q14566)", "T14 construct": "performing SuTEx compound screening directly in cells; endogenous in cells; host or cells: DM93 cells (SILAC), soluble fraction", "assay_type": "cell-based", "method_in_brief": "as §1"}, "P18206": {"target": "T15, P18206 (Homo sapiens, UniProt P18206)", "T15 construct": "Probe-modified proteins from the soluble fraction were conjugated to a desthiobiotin-azide tag; endogenous in cells; host or cells: DM93 (SILAC)", "assay_type": "cell-based", "method_in_brief": "as §1"}, "P46940": {"target": "T16, P46940 (Homo sapiens, UniProt P46940)", "T16 construct": "endogenous in cells; host or cells: DM93 cells (SILAC)", "assay_type": "cell-based", "method_in_brief": "as §1"}, "P02794": {"target": "T17, P02794 (Homo sapiens, UniProt P02794)", "T17 construct": "endogenous in cells; host or cells: DM93 cells (SILAC)", "T17 sequence (P02794 whole entry)": "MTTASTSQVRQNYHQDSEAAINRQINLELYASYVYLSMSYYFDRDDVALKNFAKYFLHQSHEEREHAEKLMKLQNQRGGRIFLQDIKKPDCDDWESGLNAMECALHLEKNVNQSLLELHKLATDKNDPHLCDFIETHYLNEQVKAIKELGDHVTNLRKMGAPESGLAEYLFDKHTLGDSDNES", "assay_type": "cell-based", "method_in_brief": "as §1"}}}
{"smiles": "O=C(c1ccc(S(=O)(=O)n2cncn2)cc1)N1CCC(c2ccccc2)CC1", "note": "[HHS-0701, (4-((1H-1,2,4-triazol-1-yl)sulfonyl)phenyl)(4-phenylpiperidin-1-yl)methanone]", "values": [{"measurement": "liganded tyrosine site 416", "setting": "O95373", "result": "HHS0701.Y (tyrosine sites that showed >80% reductions (SR >5) in probe labeling in cells treated with compounds (liganded sites))"}, {"measurement": "liganded tyrosine site 455", "setting": "O95373", "result": "HHS0701.Y (tyrosine sites that showed >80% reductions (SR >5) in probe labeling in cells treated with compounds (liganded sites))"}, {"measurement": "liganded tyrosine site 179", "setting": "Q04323", "result": "HHS0701.Y (tyrosine sites that showed >80% reductions (SR >5) in probe labeling in cells treated with compounds (liganded sites))"}, {"measurement": "liganded tyrosine site 101", "setting": "Q04837", "result": "HHS0701.Y (tyrosine sites that showed >80% reductions (SR >5) in probe labeling in cells treated with compounds (liganded sites))"}, {"measurement": "liganded tyrosine site 119", "setting": "Q04837", "result": "HHS0701.Y (tyrosine sites that showed >80% reductions (SR >5) in probe labeling in cells treated with compounds (liganded sites))"}]}
{"smiles": "O=C(NC1CC1)c1ccc(S(=O)(=O)n2cncn2)cc1", "note": "[HHS-0101, 4-((1H-1,2,4-triazol-1-yl)sulfonyl)-N-cyclopropylbenzamide]", "values": [{"measurement": "liganded tyrosine site 1008", "setting": "A6NKT7", "result": "HHS0101.Y (tyrosine sites that showed >80% reductions (SR >5) in probe labeling in cells treated with compounds (liganded sites))"}, {"measurement": "liganded tyrosine site 49", "setting": "Q9BUT1", "result": "HHS0101.Y (tyrosine sites that showed >80% reductions (SR >5) in probe labeling in cells treated with compounds (liganded sites))"}, {"measurement": "liganded tyrosine site 168", "setting": "Q9Y2S7", "result": "HHS0101.Y (tyrosine sites that showed >80% reductions (SR >5) in probe labeling in cells treated with compounds (liganded sites))"}]}
{"smiles": "O=C(NC1CCCCC1)c1ccc(S(=O)(=O)n2cncn2)cc1", "note": "[HHS-0301, 4-((1H-1,2,4-triazol-1-yl)sulfonyl)-N-cyclohexylbenzamide]", "values": [{"measurement": "liganded tyrosine site 91", "setting": "P06400", "result": "HHS0301.Y|HHS0701.Y (tyrosine sites that showed >80% reductions (SR >5) in probe labeling in cells treated with compounds (liganded sites))"}, {"measurement": "liganded tyrosine site 134", "setting": "P31948", "result": "HHS0301.Y (tyrosine sites that showed >80% reductions (SR >5) in probe labeling in cells treated with compounds (liganded sites))"}, {"measurement": "liganded tyrosine site 9", "setting": "Q12965", "result": "HHS0301.Y (tyrosine sites that showed >80% reductions (SR >5) in probe labeling in cells treated with compounds (liganded sites))"}]}
{"smiles": "O=C(NCc1ccccc1)c1ccc(S(=O)(=O)n2cncn2)cc1", "note": "[HHS-0401, 4-((1H-1,2,4-triazol-1-yl)sulfonyl)-N-benzylbenzamide]", "values": [{"measurement": "liganded tyrosine site 119", "setting": "P18669", "result": "HHS0401.Y (tyrosine sites that showed >80% reductions (SR >5) in probe labeling in cells treated with compounds (liganded sites))"}]}
{"smiles": "O=C(NCC1CC1)c1ccc(S(=O)(=O)n2cncn2)cc1", "note": "[HHS-0201, 4-((1H-1,2,4-triazol-1-yl)sulfonyl)-N-(cyclopropylmethyl)benzamide]", "values": [{"measurement": "liganded tyrosine site 295", "setting": "P13010", "result": "HHS0201.Y (tyrosine sites that showed >80% reductions (SR >5) in probe labeling in cells treated with compounds (liganded sites))"}, {"measurement": "liganded tyrosine site 273", "setting": "Q99797", "result": "HHS0201.Y (tyrosine sites that showed >80% reductions (SR >5) in probe labeling in cells treated with compounds (liganded sites))"}, {"measurement": "liganded tyrosine site 169", "setting": "Q9HCE5", "result": "HHS0201.Y|HHS0301.Y (tyrosine sites that showed >80% reductions (SR >5) in probe labeling in cells treated with compounds (liganded sites))"}, {"measurement": "liganded tyrosine site 163", "setting": "Q9UI12", "result": "HHS0201.Y|HHS0301.Y (tyrosine sites that showed >80% reductions (SR >5) in probe labeling in cells treated with compounds (liganded sites))"}, {"measurement": "liganded tyrosine site 783", "setting": "Q14566", "result": "HHS0201.Y (tyrosine sites that showed >80% reductions (SR >5) in probe labeling in cells treated with compounds (liganded sites))"}, {"measurement": "liganded tyrosine site 100", "setting": "P18206", "result": "HHS0201.Y|HHS0301.Y (tyrosine sites that showed >80% reductions (SR >5) in probe labeling in cells treated with compounds (liganded sites))"}, {"measurement": "liganded tyrosine site 977", "setting": "P46940", "result": "HHS0201.Y|HHS0301.Y|HHS0701.Y (tyrosine sites that showed >80% reductions (SR >5) in probe labeling in cells treated with compounds (liganded sites))"}, {"measurement": "liganded tyrosine site 13", "setting": "P02794", "result": "HHS0201.Y (tyrosine sites that showed >80% reductions (SR >5) in probe labeling in cells treated with compounds (liganded sites))"}]}
